Here are results for one compound from patent US20150111750A1, “Substituted N-(tetrazol-5-yl)- and N-(triazol-5-yl)hetarylcarboxamide compounds and their use as herbicides” (BASF SE, priority 2012, published 2015).

Molecules are shown by their SMILES.

One test has as its system Amaranthus retroflexus. The experiment in a line: Greenhouse post-emergence treatment of Amaranthus retroflexus. In kind it is in vivo. The following applies: application rate 1000 g/ha, scale 0 (no damage) to 100 (complete destruction). The source says:
(§1) The seeds of the test plants were sown separately for each species. For the post-emergence treatment, the test plants were first grown to a height of 3 to 15 cm, depending on the plant habit, and only then treated with the active ingredients which had been suspended or emulsified in water. For this purpose, the test plants were either sown directly and grown in the same containers, or they were first grown separately as seedlings and transplanted into the test containers a few days prior to treatment. Depending on the species, the plants were kept at 10-25° C. or 20-35° C. The test period extended over 2 to 4 weeks. During this time, the plants were tended, and their response to the individual treatments was evaluated. Evaluation was carried out using a scale from 0 to 100. 100 means no emergence of the plants, or complete destruction of at least the aerial moieties, and 0 means no damage, or normal course of growth. A good herbicidal activity is given at values of at least 70 and a very good herbicidal activity is given at values of at least 85. The plants used in the greenhouse experiments belonged to the following species: [table]

In a further test the test system is Echinochloa crus-galli. As to the kind of experiment: Greenhouse post-emergence treatment of Echinochloa crus-galli. In kind it is in vivo. As to conditions: application rate 1000 g/ha, scale 0 (no damage) to 100 (complete destruction).
Text: as §1

For the compound `Cn1ncnc1NC(=O)c1cnc(Cl)cc1Cl` [I.5-1, 4,6-dichloro-N-(2-methyl-1,2,4-triazol-3-yl)pyridine-3-carboxamide], the “damage [%]” value is given as 65% in the test with Amaranthus retroflexus and 30% in the test with Echinochloa crus-galli.
